Experimental data: PubChem BioAssay (NCI)
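These data come from cells grown in 96-well plates and exposed to compound for 48 hours at five concentrations. At the GI50, growth is halved. TGI: concentration producing complete growth inhibition.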

How the values were obtained:
Test in all cases: DTP human tumour cell line panel, 48 h
A549 NSCLC = tested on: A549 NSCLC
SNB-75 CNS = tested on: SNB-75 CNS
OVCAR-3 ovarian = tested on: OVCAR-3 ovarian
SNB-19 CNS = tested on: SNB-19 CNS
RXF 393 renal = tested on: RXF 393 renal
UO-31 renal = tested on: UO-31 renal
SR leukemia = tested on: SR leukemia
CCRF-CEM leukemia = tested on: CCRF-CEM leukemia
HCT-15 colon = tested on: HCT-15 colon
CAKI-1 renal = tested on: CAKI-1 renal

Structure (SMILES) | GI50 (A549 NSCLC) [µM] | TGI (A549 NSCLC) [µM] | GI50 (SNB-75 CNS) [µM] | TGI (SNB-75 CNS) [µM] | GI50 (OVCAR-3 ovarian) [µM] | TGI (OVCAR-3 ovarian) [µM] | GI50 (SNB-19 CNS) [µM] | TGI (SNB-19 CNS) [µM] | GI50 (RXF 393 renal) [µM] | TGI (RXF 393 renal) [µM] | GI50 (UO-31 renal) [µM] | TGI (UO-31 renal) [µM] | GI50 (SR leukemia) [µM] | TGI (SR leukemia) [µM] | GI50 (CCRF-CEM leukemia) [µM] | TGI (CCRF-CEM leukemia) [µM] | GI50 (HCT-15 colon) [µM] | TGI (HCT-15 colon) [µM] | GI50 (CAKI-1 renal) [µM] | TGI (CAKI-1 renal) [µM]
O=C1OCC2=C1C(c1ccccc1)c1cc3c(cc1N2CCO)OCO3 (stereo not drawn) | 14.7 | > 50 | 2.06 | > 50 | 1.15 | 2.6 | 15.6 | > 50 | 8.03 | 35.7 | 27.8 | > 50 | 3.49 | > 50 | 4.54 | > 50 | 2.96 | > 50 | 3.87 | > 50
CNC(=O)c1nn(C)c2c1C(C)(C)Cc1cnc(Nc3ccc(N4CCN(C)CC4)cc3)nc1-2 | 0.682 | > 10 | 0.304 | 2.29 | 0.966 | > 10 | 0.322 | > 10 | 0.343 | > 4.5 | 0.169 | 2.39 | 0.452 | > 5.71 | 1.58 | > 10 | 0.337 | > 10 | 0.114 | 1.22
CC(=O)O[C@H]1CCc2c(cc(N)c3c2C(=O)C[C@]2(C)C([C@H](C)CCCC(C)C)CCC32C)C1(C)C (stereo partly drawn) |  | > 100 |  | > 100 |  | > 100 |  | > 100 |  | > 100 |  | > 100 |  | > 100 |  | > 100 |  | > 100 |  | > 100
CC(=O)OCC1OC(N2C(=O)C(=O)c3ccccc32)C(OC(C)=O)C(OC(C)=O)C1OC(C)=O (stereo not drawn) |  | > 100 |  | > 100 |  | > 100 |  | > 100 |  | > 100 |  | > 100 |  | > 100 |  | > 100 |  | > 100 |  | > 100
CC(C)CCC1(CCN)C(=O)NC(=O)NC1=O |  | > 100 |  | > 100 |  | > 100 |  | > 100 |  | > 100 |  | > 100 |  | > 100 |  | 48.3 |  | > 100 |  | > 100
Cc1cc(N(CCC#N)CCC#N)ccc1/C=C(\NC(=O)/C=C/c1ccccc1)C(=O)NN |  | > 100 |  | > 62.9 |  | > 100 |  | > 55.7 |  | > 92.3 |  | > 100 |  | > 100 |  | > 100 |  | > 100 |  | > 100
CSC(=S)N/N=C/c1nccc2ccccc12 |  | 9.87 |  | 14 |  |  |  | > 27.1 |  | 6.01 |  | 9.4 |  | 18.8 |  | 8.8 |  | 40 |  | 14.2
COc1ccc2[nH]c3c(c2c1)[C@H](C)C[C@@H]1C(=O)N(c2ccccc2)C(=O)[C@H]31 |  | 62.4 |  | 48.1 |  | 56.1 |  | > 100 |  | 53.1 |  | > 100 |  | 70.1 |  | > 100 |  | > 100 |  | > 100
COCCOCCOC1=CC(=O)c2c(O)ccc(O)c2C1=O |  | 3.38 |  | 3.28 |  | 2.75 |  | 3.28 |  | 3.68 |  | 3.02 |  | 5.03 |  | 4.48 |  |  |  | 2.04
